Source: the NIST ThermoML archive (doi:10.1016/j.tca.2004.11.015)
± gives the expanded uncertainty stated by the source.

Experiment: xn = mol fraction of the nth substance listed
Settings: 101.33 kPa, Liquid, Vibrating tube method

NCCO [2-aminoethan-1-ol] + CO
mass density [kg/m3]
Settings | 283.15 K | 288.15 K | 293.15 K | 298.15 K
x1 = 0.012 | 805.83 ± 0.14 | 801.17 ± 0.14 | 796.49 ± 0.15 | 791.8 ± 0.15
x1 = 0.031 | 813.82 ± 0.14 | 809.2 ± 0.14 | 804.57 ± 0.15 | 799.92 ± 0.15
x1 = 0.05 | 821.45 ± 0.14 | 816.86 ± 0.14 | 812.26 ± 0.14 | 807.64 ± 0.15
x1 = 0.1 | 840.61 ± 0.14 | 836.11 ± 0.15 | 831.59 ± 0.15 | 827.05 ± 0.15
x1 = 0.15 | 858.27 ± 0.15 | 853.79 ± 0.15 | 849.33 ± 0.16 | 844.86 ± 0.16
x1 = 0.2002 | 874.67 ± 0.17 | 870.3 ± 0.17 | 865.9 ± 0.17 | 861.49 ± 0.17
x1 = 0.2501 | 889.65 ± 0.18 | 885.33 ± 0.18 | 880.98 ± 0.18 | 876.62 ± 0.18
x1 = 0.2974 | 902.94 ± 0.2 | 898.66 ± 0.2 | 894.35 ± 0.2 | 890.03 ± 0.2
x1 = 0.3502 | 916.72 ± 0.22 | 912.48 ± 0.22 | 908.21 ± 0.22 | 903.94 ± 0.22
x1 = 0.4001 | 928.53 ± 0.24 | 924.32 ± 0.24 | 920.09 ± 0.24 | 915.84 ± 0.24
x1 = 0.4427 | 938.12 ± 0.26 | 933.94 ± 0.26 | 929.73 ± 0.26 | 925.51 ± 0.26
x1 = 0.4502 | 939.89 ± 0.26 | 935.71 ± 0.26 | 931.52 ± 0.26 | 927.31 ± 0.26
x1 = 0.5002 | 950.16 ± 0.28 | 946.01 ± 0.28 | 941.84 ± 0.28 | 937.66 ± 0.28
x1 = 0.5501 | 959.78 ± 0.3 | 955.65 ± 0.3 | 951.5 ± 0.3 | 947.35 ± 0.3
x1 = 0.6001 | 968.89 ± 0.32 | 964.79 ± 0.32 | 960.67 ± 0.32 | –
x1 = 0.6501 | 977.39 ± 0.34 | 973.31 ± 0.34 | 969.21 ± 0.34 | –
x1 = 0.7005 | 985.59 ± 0.36 | 981.53 ± 0.36 | 977.45 ± 0.36 | –
x1 = 0.7479 | 992.48 ± 0.39 | 988.45 ± 0.39 | 984.39 ± 0.38 | –
x1 = 0.8002 | 1000.19 ± 0.41 | 996.18 ± 0.41 | 992.15 ± 0.41 | –
x1 = 0.8502 | 1006.55 ± 0.44 | 1002.56 ± 0.44 | 998.55 ± 0.44 | –
x1 = 0.8967 | 1012.63 ± 0.46 | 1008.66 ± 0.46 | 1004.66 ± 0.46 | –
x1 = 0.9501 | 1018.78 ± 0.49 | 1014.82 ± 0.49 | 1010.85 ± 0.49 | –
